Measured values from patent US20100021945A1, “DETERMINATION OF CHANGES IN CONCENTRATION” (JACOBS UNIVERSITY BREMEN GGMBH, priority 2006, published 2010).

Columns and labels:
arginase = molecular target: T1, arginase (Homo sapiens, UniProt P05089); experiment: Arginase inhibitor screening, Hill analysis of fluorescence (DBO-amine/calixarene displacement assay); type: biochemical; conditions: 0.5 mM arginine, 16 μg/ml arginase, water pH 9.5, 100 μM DBO-amine, 200 μM p-sulphonato-calix[4]arene, 6 min incubation
T1 sequence (P05089 1-322): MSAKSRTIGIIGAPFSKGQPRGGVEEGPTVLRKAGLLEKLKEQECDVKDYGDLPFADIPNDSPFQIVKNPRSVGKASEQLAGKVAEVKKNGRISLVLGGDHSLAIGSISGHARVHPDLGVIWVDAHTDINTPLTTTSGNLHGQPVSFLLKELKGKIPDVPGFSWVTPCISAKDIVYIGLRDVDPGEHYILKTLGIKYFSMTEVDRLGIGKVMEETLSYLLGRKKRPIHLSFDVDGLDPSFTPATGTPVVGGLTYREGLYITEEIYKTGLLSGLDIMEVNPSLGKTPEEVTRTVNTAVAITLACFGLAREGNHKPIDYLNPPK
Experimental: What was selected as a fluorescent dye was 1-aminomethyl-2,3-diazabicyclo[2.2.2]oct-2-ene (101, DBO-amine) and p-sulphonato-calix[4]arene (a cation receptor) was used as the macrocycle, the fluorescence of the DBO-amine 101 being quenched by the calixarene.
The reaction was performed in the presence of 100 μM of the fluorescent dye DBO-amine and 200 μM of p-sulphonato-calix[4]arene in water at a pH of 9.5.
For this purpose, 0.5 mM of arginine was reacted with 16 μg/ml of arginase in different concentrations of the respective inhibitors. The solution (water, pH 9.5) also contained 100 μM of DBO-amine and 200 μM of p-sulphonato-calix[4]arene. For the Hill analysis, the intensity of fluorescence was plotted against the logarithm of the inhibitor concentration after an incubation time of 6 minutes.

[1] = Binding constants to the macrocycle by fluorescent dye (DBO-amine) displacement
Experimental: The binding constants were determined in water at a pH of 7 in the presence of 100 μM of DBO-amine and 200 μM of p-sulphonato-calix[4]arene.

[2] = Binding to macrocycle / dapoxyl displacement in the lysine decarboxylase assay; conditions: for binding constant K: cucurbit[7]uril, assay in 10 mM NH4OAc buffer pH 6.0
Text: FIG. 5 is a reaction diagram for the conversion of L-lysine (505, analyte precursor) into cadaverine (503, analyte, removes the fluorescent dye) and CO2 (not shown, most of it escapes from the solution) by L-lysine decarboxylase. Dapoxyl (501) was selected as the fluorescent dye and cucurbit[7]uril (a cation receptor) as the macrocycle, the fluorescence of the dapoxyl (501) being increased by the complexing with cucurbit[7]uril. As a result of conversion of the analyte precursor 505 into the analyte 503, there is a decrease in fluorescence during the enzymatic reaction because more and more dye 501 is removed by the analyte and the increase in the fluorescence of the dapoxyl caused by the macrocycle thus falls off. The cucurbituril acts as a cation receptor which binds the cadaverine analyte 503, which has two positive charges, better than the L-lysine analyte precursor 505, which has a single positive charge (total charge). The schematic representation of the lysine decarboxylase enzyme is again that of the arginase which is used in FIG. 1, because no crystal structure exists for lysine decarboxylase. The representation was produced with the Swiss PdbViewer v3.7 program (http://www.expasy.org/spdbv/).
The reaction was carried out in the presence of 2.5 μM of dapoxyl and 200 μM of cucurbit[7]uril in a 10 mM NH4OAc buffer (pH 6.0). Without any chemical change to the L-lysine, without any radio-active marking, and without any antibodies, the enzymatic reaction could thus be followed easily, directly in solution without any further incubation stages, with the help of a commercially available fluorescence spectrometer (Varian Cary Eclipse, λexc=336 nm, λobs=390 nm in the present case). It can clearly be seen in this case that the binding constants of lysine (K approx. 2000 M^−1) and cadaverine (K>1000000 M^−1) are very different. […] This is not a problem inasmuch as it is generally only the initial speed as it were of an enzymatic reaction which is determined in order to characterise the reaction. […]

Molecule `N[C@@H](CCCCB(O)O)C(=O)O` [ABH, 2(s)-amino-6-boronohexanoic acid] has a Ki (arginase) of 1000 ± 100 nM.

In the case of `N[C@@H](CSCCB(O)O)C(=O)O` [BEC, S-(2-boronethyl)-L-cysteine], the Ki (arginase) is reported as 4900 ± 500 nM.

For `N=C(N)NCCC[C@H](N)C(=O)O` [arginine, L-arginine], the “binding constant K to the macrocycle” value ([1]; water, pH 7, 100 μM DBO-amine, 200 μM p-sulphonato-calix[4]arene) was 3170 ± 130 M⁻¹.

With `NCCCCCN` [cadaverine] the “concentration enough to remove all the fluorescent dye from the macrocycle” value ([2]; 2.5 μM dapoxyl, 200 μM cucurbit[7]uril, 10 mM NH4OAc buffer pH 6.0) was 100 μm and the “binding constant K” value [2] was over 1000000 M⁻¹.

In the case of `NCCCC[C@H](N)C(=O)O` [lysine, L-lysine], the “binding constant K” value [2] is reported as “approx. 2000 M^−1”.

In the case of `NC(N)=O` [urea], the “binding constant to the macrocycle (in words)” value ([1]; uncharged molecule with a cation receptor, binding can be ignored) is reported as “extremely low binding constant”.
